ChEMBL document CHEMBL5532754, “Discovery of aurones bearing two amine functionalities as SHIP2 inhibitors with insulin-sensitizing effect in rat myotubes” (RSC Med Chem, 2024)
Structures can show the parent of a compound that is named as a salt. Active and inactive are the calls of the source. No cut-off for these calls is given here.

Assays:
[1] = Thiol (sulfhydryl) reactivity of compound assessed as change in absorbance at 200 uM at pH 7.4 aqueous buffer measured at 1 to 24 hrs in presence of DTT; format: ADME; conditions: pH 7.4, 200 µM, time 1-24 hrs
L6 [2] = experiment: Induction of glucose uptake in serum-starved rat L6 myotubes at 20 uM by luminescence based microplate reader analysis; format: functional, cell-based
[3] = target: T1, Phosphatidylinositol 3,4,5-trisphosphate 5-phosphatase 2 (Rattus norvegicus) (UniProt Q9WVR3); experiment: Inhibition of SHIP2 in serum-starved rat L6 myotubes assessed as increase in phosphorylated Akt to total Akt level at 20 to 40 uM incubated for 24 hrs by ELISA; format: cell-based; conditions: dose 20-40 µM
T1 sequence (whole entry): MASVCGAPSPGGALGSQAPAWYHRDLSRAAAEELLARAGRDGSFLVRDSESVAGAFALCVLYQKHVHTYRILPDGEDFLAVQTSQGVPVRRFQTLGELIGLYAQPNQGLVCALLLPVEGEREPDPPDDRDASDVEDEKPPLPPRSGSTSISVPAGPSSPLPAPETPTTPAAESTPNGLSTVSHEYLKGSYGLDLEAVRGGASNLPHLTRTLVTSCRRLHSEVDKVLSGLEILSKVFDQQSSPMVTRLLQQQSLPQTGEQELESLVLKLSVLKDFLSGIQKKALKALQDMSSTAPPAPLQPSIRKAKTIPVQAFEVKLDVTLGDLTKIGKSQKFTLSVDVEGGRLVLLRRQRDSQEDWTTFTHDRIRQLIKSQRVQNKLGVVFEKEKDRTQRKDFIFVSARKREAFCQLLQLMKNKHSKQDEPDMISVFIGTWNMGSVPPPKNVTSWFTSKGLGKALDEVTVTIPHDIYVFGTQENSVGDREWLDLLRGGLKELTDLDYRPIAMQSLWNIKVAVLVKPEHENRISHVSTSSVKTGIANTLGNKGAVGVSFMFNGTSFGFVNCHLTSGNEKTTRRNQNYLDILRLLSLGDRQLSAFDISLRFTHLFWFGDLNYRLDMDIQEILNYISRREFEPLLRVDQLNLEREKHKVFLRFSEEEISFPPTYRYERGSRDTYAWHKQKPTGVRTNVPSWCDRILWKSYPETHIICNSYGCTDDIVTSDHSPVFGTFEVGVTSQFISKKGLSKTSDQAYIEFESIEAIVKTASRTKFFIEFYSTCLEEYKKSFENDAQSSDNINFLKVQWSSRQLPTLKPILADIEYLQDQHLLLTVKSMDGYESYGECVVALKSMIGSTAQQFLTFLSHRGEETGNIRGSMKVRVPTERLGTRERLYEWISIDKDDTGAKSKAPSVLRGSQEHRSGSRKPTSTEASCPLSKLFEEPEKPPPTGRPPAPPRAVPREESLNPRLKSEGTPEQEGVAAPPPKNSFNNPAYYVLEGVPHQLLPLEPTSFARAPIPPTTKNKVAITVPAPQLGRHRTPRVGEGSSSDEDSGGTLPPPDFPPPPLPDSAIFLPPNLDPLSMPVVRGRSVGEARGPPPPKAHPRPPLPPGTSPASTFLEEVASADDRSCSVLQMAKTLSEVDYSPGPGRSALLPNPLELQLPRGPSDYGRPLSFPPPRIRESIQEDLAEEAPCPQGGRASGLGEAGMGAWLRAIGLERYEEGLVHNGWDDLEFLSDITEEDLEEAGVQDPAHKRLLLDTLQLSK

[4] = Thiol (sulfhydryl) reactivity of compound assessed as change in absorbance at 200 uM at pH 7.4 aqueous buffer measured upto 24 hrs in presence of DTT; format: ADME; conditions: pH 7.4, 24 h
[5] = Apparent permeability of the compound across apical to basolateral side in human Caco-2 cells at 30 uM incubated for 60 mins by LC analysis; format: ADME, cell-based
L6 [6] = experiment: Insulin sensitizing activity in rat L6 myotubes assessed as increase in glucose uptake by measuring fold change at 2 mM preincubated with compound for 18 hrs followed by insulin addition and measured after 15 mins by luminescence based microplate reader analysis; format: functional; conditions: time 18.25 hrs
L6 [7] = experiment: Induction of glucose uptake in serum-starved rat L6 myotubes at 2 mM by luminescence based microplate reader analysis; format: functional, cell-based

In the case of COC(=O)/C=C/C(=O)OC [DIMETHYL FUMARATE], the Activity [1] is reported as “Active”.

With CN(C)CCCn1cc(/C=C2\Oc3cc(OCCN4CCCCC4)ccc3C2=O)c2ccccc21 the Activity (L6 [2]) was “inactive”, the inhibition [3] was “Active” and the Activity [4] was “Not Active”.

With O=C1/C(=C/c2cn(CCN3CCCCC3)c3ccccc23)Oc2cc(OCCN3CCCCC3)ccc21 the Activity (L6 [2]) was “inactive”, the inhibition [3] was “Active” and the Papp A→B at 1 h, 30 µM [5] was 253 nm/s. The Activity [4] was “Not Active”.

For O=C1/C(=C/c2cn(CCN3CCOCC3)c3ccccc23)Oc2cc(OCCN3CCCCC3)ccc21, the Activity (L6 [2]) was “inactive”, the inhibition [3] was “Active” and the Activity [4] was “Not Active”.

For CN(C)C(=N)NC(=N)N [METFORMIN], the “fold change (FC)” value (L6 [6]) was 1.6 and the Activity (L6 [7]) was “inactive”.
